Data taken from PubChem BioAssay AID463206 (Broad Institute, 2010).
Activity calls are given as the source filed them.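 The calls were made as follows: active = caspase luminescence falls with dose and the half-maximal concentration AC50 from the fitted curve is at or below a set limit; inconclusive = flat fit at 30 to 70% signal loss, or invalid fit; inactive = AC50 above the limit, or signal rises instead.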

What follows are compounds tested on INS-1E cytokine-induced caspase-3/7, Caspase-Glo luminescence, 48 h (assay: suppression of cytokine-driven beta-cell apoptosis – INS-1E rat cells, luminescence, orthogonal assay for beta-cell apoptosis protection project, dose response (AID 463206)).
`COc1ccc(NC(=O)/C(Cl)=C(/Cl)S(=O)Cc2ccccc2)cn1` (stereo unspecified) was tested, and the AC50 was > 26 µM (inactive). For `Cc1ccc(/C=N/Nc2ccnc3cc(Cl)ccc23)c(C)c1`, the AC50 was > 12 µM (inactive). For `Cc1cccc(NC(=S)Nc2ccc3cn[nH]c3c2)c1`, the AC50 was > 26 µM (inactive). In the case of `COc1cc(NC(=O)c2cc3ccccc3cc2O)c(OC)cc1Cl`, the AC50 is reported as > 26 µM (inactive). In the case of `CCCCCc1cc(=O)oc2c(C(CCN3CCCCC3)c3ccc4c(c3)OCO4)c(OC)cc(OC)c12` (stereo unspecified), the AC50 is reported as > 26 µM (inactive). In the case of `CC(=O)Nc1ccccc1OCC(=O)c1cc(C)n(Cc2cccs2)c1C`, the AC50 is reported as > 26 µM (inactive). `CC(=O)Nc1ccc(NC2=C/C(=N/S(=O)(=O)c3cccs3)c3ccccc3C2=O)cc1` was tested, and the AC50 was > 26 µM (inactive). For `COc1cc2sc(-c3ccccc3OC)c(-c3ccc(OCCN4CCCCC4)cc3)c2cc1OC`, the AC50 was 16 µM. With `CC(CC(=O)N1CCN(c2cccc(Cl)c2)CC1)S(=O)(=O)c1ccc2c(c1)NC(=O)CO2` (stereo unspecified) the AC50 was > 26 µM (inactive). In the case of `COc1ccccc1C(=O)Nc1nc2ccccc2[nH]1`, the AC50 is reported as > 26 µM (inactive). For `Cc1ccc(S(=O)(=O)c2ccc([N+](=O)[O-])cn2)cc1`, the AC50 was > 26 µM (inactive). In the case of `Cn1nc(C(C)(C)C)cc1C(=O)NCc1cc(F)cc2c1OCOC2`, the AC50 is reported as > 26 µM (inactive). With `CC(C)=CCc1cc2c(=O)c3c(O)c4c(cc3oc2c(O)c1O)OC(C)C4(C)C` (stereo unspecified) the AC50 was > 26 µM (inactive). `CN1/C(=C\C(=O)C[n+]2ccc(C(=O)c3ccccc3)cc2)C(C)(C)c2ccccc21` was tested, and the AC50 was > 26 µM (inactive). In the case of `N#CC(C#N)=C(Nc1ccc(F)cc1)SCc1cccc(Br)c1`, the AC50 is reported as > 26 µM (inactive). For `CC1(C)C[C@@H]2C[C@@](C)(CN2C(=O)c2cc(COc3cccc(C(F)(F)F)c3)on2)C1`, the AC50 was > 12 µM (inactive). For `CC(C)C[C@H](NC(=O)c1nc[nH]c1C(=O)N[C@@H](CC(C)C)C(=O)OC(C)(C)C)C(=O)OCc1ccccc1`, the AC50 was > 26 µM (inactive). For `Nc1nonc1-n1nnc(C(=O)N/N=C/c2cc(Cl)ccc2O)c1CN1CCCCCC1`, the AC50 was > 26 µM (inactive). For `CCCC(=O)NC(c1ccc(OC)c(OC)c1)c1cc(Cl)c2cccnc2c1O` (stereo unspecified), the AC50 was > 26 µM (inactive). With `Cc1cc(Br)cc(/C=N/NC(=O)c2ccc3c(c2)OCO3)c1O` the AC50 was > 26 µM (inactive). `COc1ccc(S(=O)(=O)/N=C2\C=C(Nc3ccc(O)cc3)C(=O)c3ccccc32)cc1` was tested, and the AC50 was > 26 µM (inactive). `Cc1cc(N2CCN(c3nc4ccccc4s3)CC2)n2ncnc2n1` was tested, and the AC50 was > 26 µM (inactive). `Cn1ncc2c(O/N=C(\N)c3ccc(C(C)(C)C)cc3)ncnc21` was tested, and the AC50 was > 26 µM (inactive). In the case of `CCCCCCCCCCOC(=O)Cn1c(COc2cccc(C)c2)[n+](C)c2ccccc21`, the AC50 is reported as > 26 µM (inactive). `Cc1cc(OCc2nc(-c3ccc(NC(=O)c4cccnc4)cc3)no2)ccc1Cl` was tested, and the AC50 was > 26 µM (inactive). In the case of `COc1ccc(C2/C=C\CN(C(=O)Nc3ccc(C(F)(F)F)cc3)CC(=O)N2Cc2ccc(F)cc2)cc1` (stereo unspecified), the AC50 is reported as > 26 µM (inactive). `CC1CCN(c2ccc(NC(=O)c3ccc([N+](=O)[O-])o3)cc2)CC1` was tested, and the AC50 was > 26 µM (inactive). For `Cc1ccc2nc(NNC(=O)c3ccc(S(=O)(=O)N4CCc5ccccc5C4)cc3)sc2c1`, the AC50 was > 26 µM (inactive). With `COc1ccc(CNC[C@@H](CCCCN(C)Cc2ccc(OC)cc2)N2C[C@H](c3ccccc3)N(CCc3ccc(Cl)c(Cl)c3)C(=O)C2=O)cc1` the AC50 was > 26 µM (inactive). `CCCCC[n+]1ccn(C2=C([O-])c3ccccc3C(=O)/C2=N\S(=O)(=O)c2ccc(Cl)cc2)c1` was tested, and the AC50 was > 26 µM (inactive). In the case of `Cc1cc(C)c[n+](C2=C([O-])c3ccccc3C(=O)/C2=N\S(=O)(=O)c2cccs2)c1`, the AC50 is reported as > 26 µM (inactive). In the case of `CCOC(=O)c1ccc(NC(=O)c2nc(S(=O)(=O)Cc3ccccc3)ncc2Cl)cc1`, the AC50 is reported as > 26 µM (inactive). `Cc1cc(C)n(Cc2ccc(NC(=O)c3ccc(COc4ccccc4Br)cc3)cc2)n1` was tested, and the AC50 was > 26 µM (inactive). In the case of `Cc1ccc(C2CC(c3cccc(Br)c3)n3nc(N)nc3N2)cc1` (stereo unspecified), the AC50 is reported as > 26 µM (inactive). `COc1ccc(Cc2nnc(N/N=C/c3ccccc3O)[nH]c2=O)cc1OC` was tested, and the AC50 was > 26 µM (inactive). In the case of `CCCCCCC(=O)N1C/C=C\C(c2ccc(OC)cc2)N(Cc2ccc(F)cc2)C(=O)[C@H]1Cc1ccccc1` (stereo partly specified), the AC50 is reported as > 26 µM (inactive). For `COc1ccc(-n2cc(-c3ccc(OC(F)F)cc3)[n+]3c2CCCCC3)cc1`, the AC50 was > 26 µM (inactive). Compound `Nc1cc2c3c(cccc3c1)C(=O)N(CCN1CCCC1)C2=O` has an AC50 of 15.4 µM. `N#CC1=C(N)Oc2c(ccc3cccnc23)C1c1ccccc1` (stereo unspecified) was tested, and the AC50 was > 12 µM (inactive). With `O=C1C=C(c2ccc(F)cc2OCc2ccccc2)C[C@@H](c2ccc(Cl)cc2)C1` the AC50 was > 26 µM (inactive). For `COc1ccc(NC(=O)/C(Cl)=C(/Cl)S(=O)Cc2ccc(C)cc2)cn1` (stereo unspecified), the AC50 was > 26 µM (inactive). `COc1ccc(-c2c[n+]3c(n2-c2ccc(C)cc2)CCCCC3)cc1` was tested, and the AC50 was > 26 µM (inactive). With `CCn1c(=O)c(C(=O)Nc2nc3ccccc3[nH]2)c(O)c2ccccc21` the AC50 was > 26 µM (inactive). With `CCOC(=O)c1cnc(-n2nc(C)cc2C)nc1NNc1cc(C)nc(-c2ccccc2)n1` the AC50 was > 26 µM (inactive). With `CCCC[n+]1ccn(C2=C([O-])c3ccccc3C(=O)/C2=N\S(=O)(=O)c2ccc(Cl)cc2)c1` the AC50 was > 26 µM (inactive). For `Cc1ccc(C)c(S(=O)(=O)Nc2ccc(O)c3ccccc23)c1`, the AC50 was > 26 µM (inactive).
